# Activity calls are given as the source filed them.
# Key:
# [1] = NIH3T3 cell viability loss – ATP luminescence, mouse fibroblasts, counter-screen, dose response (AID 2010); assay type: functional, cell-based;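 also: cells exposed to compound for about 90 hours before reading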
# Streptococcus = assay: GAS UMAA2166 growth inhibition – luminescence, BacTiterGlo, counter-screen for streptokinase expression inhibitor project, dose response (AID 1915); assay type: functional, organism-based;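 also: potency for reduction of bacterial viability or growth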
# [2] = molecular target: Peroxisome proliferator-activated receptor gamma/Nuclear receptor coactivator 2 (Homo sapiens, UniProt P37231); assay type: functional;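 also: agonist potency for raising coactivator recruitment to the receptor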
# [3] = molecular target: Peroxisome proliferator-activated receptor gamma/Nuclear receptor coactivator 1 (Homo sapiens, UniProt P37231); assay type: functional;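 also: agonist potency as compounds enhance coactivator SRC-1 recruitment to PPARgamma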
# [4] = molecular target: Voltage-dependent T-type calcium channel subunit alpha-1H (Homo sapiens, UniProt O95180); assay type: functional;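 also: channel activity triggered by adding a high calcium stimulation buffer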
# Streptokinase A = molecular target: T1, Streptokinase A (Streptococcus pyogenes serotype M1, UniProt P10520); assay: viability-normalized secreted streptokinase activity reduction – plasminogen activation absorbance, OD405, dose response (AID 1914); assay type: functional, Streptococcus pyogenes M1 GAS;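 also: secreted streptokinase activity via plasminogen activation per viability signal from cell pellet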
# T1 sequence (P10520 whole entry): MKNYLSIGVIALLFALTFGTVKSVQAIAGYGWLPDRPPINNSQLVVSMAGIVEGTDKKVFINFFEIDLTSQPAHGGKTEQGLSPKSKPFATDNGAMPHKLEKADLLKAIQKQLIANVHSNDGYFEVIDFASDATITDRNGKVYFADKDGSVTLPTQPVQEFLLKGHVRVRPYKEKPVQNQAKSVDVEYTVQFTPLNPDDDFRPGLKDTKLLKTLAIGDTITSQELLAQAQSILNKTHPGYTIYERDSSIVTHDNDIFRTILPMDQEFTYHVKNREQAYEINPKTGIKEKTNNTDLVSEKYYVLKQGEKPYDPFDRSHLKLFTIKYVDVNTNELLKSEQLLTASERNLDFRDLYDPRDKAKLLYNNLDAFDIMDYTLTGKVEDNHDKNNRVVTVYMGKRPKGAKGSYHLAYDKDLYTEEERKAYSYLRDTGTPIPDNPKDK
# [5] = molecular target: G-protein coupled receptor 35 (Homo sapiens, UniProt Q9HC97); assay: inhibition of zaprinast-stimulated GPR35 beta-arrestin translocation – imaging, U2OS, beta-arrestin-GFP, zaprinast agonist, primary screen (AID 2058); assay type: functional;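 also: antagonist potency meaning inhibition of agonist-induced arrestin redistribution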
# [6] = molecular target: Peroxisome proliferator-activated receptor gamma/Nuclear receptor coactivator 3 (Homo sapiens, UniProt P37231); assay type: functional;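 also: agonist potency for raising coactivator recruitment to the receptor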
# [7] = tested on: Streptococcus sp. 'group A'; assay: Streptococcus pyogenes SK(-)GAS viability under kanamycin – luminescence, BacTiterGlo, confirmation, counter-screen for streptokinase expression inhibitor project, dose response (AID 1900); assay type: functional, organism-based
# [8] = Trypanosoma cruzi growth suppression in host cells – NIH3T3 host cells, beta-gal luminescence, confirmation (AID 2044); assay type: functional, cell-based;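 also: intracellular parasites grown in NIH/3T3 mouse fibroblasts as host cells; luminescent beta-galactosidase reporter signal from transgenic T. cruzi replicating inside host cells; inhibitors lower the luminescence signal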
# Mucolipin-3 = Mucolipin-3 (Homo sapiens, UniProt Q8TDD5); assay: Dose response cell-based high-throughput screening assay for agonists of the transient receptor potential channel ML3 (TRPML3). [Related pubchem assays: 1526, 1424, 1448 ]; assay type: functional
# [9] = HIV-1 AD8 envelope cell-cell fusion blockers – cherry-pick, dose response (AID 652062); assay type: functional, cell-based;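 also: luciferase signal from cell-cell fusion driven by HIV-1 clade B AD8 Env; potency is for inhibitors of fusion seen as a drop in luminescence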
# [10] = blockers of HIV-1 ZM109 envelope-driven cell-cell fusion – HeLa effector, CEM target cells, luciferase, cherry-pick, dose response (AID 652058); assay type: functional, cell-based;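 also: luciferase signal from HIV-1 Env mediated cell-cell fusion of effector and target cells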
# Ion channel NompC = Ion channel NompC (Danio rerio, UniProt Q7T1G6); assay: Fluorescence counterscreen assay for TRPML3 agonists: dose response cell-based high-throughput screening assay to identify agonists of the transient receptor potential channel N1 (TRPN1). [Related pubchem assays: 1526, 1424, 1448 ]; assay type: functional
# [11] = blockers of HIV-1 envelope-mediated cell-cell fusion – cherry-pick, dose response (AID 652057); assay type: functional, cell-based
# [12] = off-target signal loss in HeLa-CEM21 co-culture – HeLa F-luc CTL cells, cherry-picked, counter-screen for HIV-1 Env fusion inhibitor project, dose response (AID 652040); assay type: functional, cell-based;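 also: potency for signal decrease marking cytotoxic or nonspecific inhibition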
# [13] = Luminescence-based counterscreen assay for KLF5 inhibitors: dose response cell-based high throughput screening assay to identify cytotoxic compounds using the IEC-6 intestinal epithelial cell line. [Related pubchem assays: 1700 (Primary screen.), 1834 (Confirmation screen.), 1858 (Summary AID.), 1905 (Counterscreen.)]; assay type: functional
# [14] = molecular target: Eukaryotic translation initiation factor 4E (Mus musculus, UniProt P63073); assay: blockers of eIF4G binding by eIF4E – biochemical, TR-FRET, dose response (AID 855); assay type: functional;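 also: potency for disrupting eIF4E binding to eIF4GI seen as loss of FRET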
# [15] = Counterscreen for IDE inhibitors: Luminescence-based cell-based high throughput dose response assay to identify compounds that are cytotoxic to HEK cells. [Related pubchem assays: 434962 (Primary screen (IDE inhibitors in singlicate)), 449730 (Counterscreen (Cytotoxicity in triplicate)), 435028 (Confirmation (IDE inhibitors in triplicate)) …; assay type: functional; details: HEK293
# Insulin-degrading enzyme = molecular target: T2, Insulin-degrading enzyme (Homo sapiens, UniProt P14735); assay: Dose Response: Fluorescence polarization-based cell-based high throughput dose response assay for inhibitors of insulin-degrading enzyme (IDE). [Related pubchem assays: 434962 (Primary screen (IDE inhibitors in singlicate)), 449730 (Counterscreen (Cytotoxicity in triplicate)), 435028 (Confirmation (IDE inhibitors in triplicate)), 434984 (Summary …; assay type: functional
# T2 sequence (P14735 whole entry): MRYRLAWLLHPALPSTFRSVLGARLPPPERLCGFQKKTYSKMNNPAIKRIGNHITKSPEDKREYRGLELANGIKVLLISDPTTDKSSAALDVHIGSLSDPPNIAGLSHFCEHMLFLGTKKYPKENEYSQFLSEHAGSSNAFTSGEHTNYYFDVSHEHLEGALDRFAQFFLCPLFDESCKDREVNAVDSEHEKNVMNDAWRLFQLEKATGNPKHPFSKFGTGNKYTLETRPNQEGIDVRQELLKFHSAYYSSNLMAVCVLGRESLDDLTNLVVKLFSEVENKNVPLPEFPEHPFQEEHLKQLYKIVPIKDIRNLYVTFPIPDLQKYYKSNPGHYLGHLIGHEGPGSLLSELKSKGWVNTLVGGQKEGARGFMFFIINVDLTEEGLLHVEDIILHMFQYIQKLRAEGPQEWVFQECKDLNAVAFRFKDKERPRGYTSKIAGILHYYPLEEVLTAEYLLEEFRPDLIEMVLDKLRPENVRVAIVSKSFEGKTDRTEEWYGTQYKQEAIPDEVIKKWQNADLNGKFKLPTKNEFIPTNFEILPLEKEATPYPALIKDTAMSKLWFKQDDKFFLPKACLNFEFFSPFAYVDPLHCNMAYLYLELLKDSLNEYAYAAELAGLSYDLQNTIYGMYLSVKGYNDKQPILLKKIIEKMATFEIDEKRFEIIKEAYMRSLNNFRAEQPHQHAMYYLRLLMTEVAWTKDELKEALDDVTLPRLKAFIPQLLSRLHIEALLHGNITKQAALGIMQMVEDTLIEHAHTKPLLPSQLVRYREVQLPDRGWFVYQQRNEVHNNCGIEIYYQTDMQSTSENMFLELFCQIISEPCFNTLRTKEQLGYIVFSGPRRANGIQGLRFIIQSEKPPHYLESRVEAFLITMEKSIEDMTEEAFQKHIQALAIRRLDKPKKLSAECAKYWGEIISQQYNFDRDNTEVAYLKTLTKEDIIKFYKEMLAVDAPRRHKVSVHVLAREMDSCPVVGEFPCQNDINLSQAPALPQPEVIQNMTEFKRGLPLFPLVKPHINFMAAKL
# Voltage-dependent T-type calcium channel subunit alpha-1H, sequence (O95180 whole entry): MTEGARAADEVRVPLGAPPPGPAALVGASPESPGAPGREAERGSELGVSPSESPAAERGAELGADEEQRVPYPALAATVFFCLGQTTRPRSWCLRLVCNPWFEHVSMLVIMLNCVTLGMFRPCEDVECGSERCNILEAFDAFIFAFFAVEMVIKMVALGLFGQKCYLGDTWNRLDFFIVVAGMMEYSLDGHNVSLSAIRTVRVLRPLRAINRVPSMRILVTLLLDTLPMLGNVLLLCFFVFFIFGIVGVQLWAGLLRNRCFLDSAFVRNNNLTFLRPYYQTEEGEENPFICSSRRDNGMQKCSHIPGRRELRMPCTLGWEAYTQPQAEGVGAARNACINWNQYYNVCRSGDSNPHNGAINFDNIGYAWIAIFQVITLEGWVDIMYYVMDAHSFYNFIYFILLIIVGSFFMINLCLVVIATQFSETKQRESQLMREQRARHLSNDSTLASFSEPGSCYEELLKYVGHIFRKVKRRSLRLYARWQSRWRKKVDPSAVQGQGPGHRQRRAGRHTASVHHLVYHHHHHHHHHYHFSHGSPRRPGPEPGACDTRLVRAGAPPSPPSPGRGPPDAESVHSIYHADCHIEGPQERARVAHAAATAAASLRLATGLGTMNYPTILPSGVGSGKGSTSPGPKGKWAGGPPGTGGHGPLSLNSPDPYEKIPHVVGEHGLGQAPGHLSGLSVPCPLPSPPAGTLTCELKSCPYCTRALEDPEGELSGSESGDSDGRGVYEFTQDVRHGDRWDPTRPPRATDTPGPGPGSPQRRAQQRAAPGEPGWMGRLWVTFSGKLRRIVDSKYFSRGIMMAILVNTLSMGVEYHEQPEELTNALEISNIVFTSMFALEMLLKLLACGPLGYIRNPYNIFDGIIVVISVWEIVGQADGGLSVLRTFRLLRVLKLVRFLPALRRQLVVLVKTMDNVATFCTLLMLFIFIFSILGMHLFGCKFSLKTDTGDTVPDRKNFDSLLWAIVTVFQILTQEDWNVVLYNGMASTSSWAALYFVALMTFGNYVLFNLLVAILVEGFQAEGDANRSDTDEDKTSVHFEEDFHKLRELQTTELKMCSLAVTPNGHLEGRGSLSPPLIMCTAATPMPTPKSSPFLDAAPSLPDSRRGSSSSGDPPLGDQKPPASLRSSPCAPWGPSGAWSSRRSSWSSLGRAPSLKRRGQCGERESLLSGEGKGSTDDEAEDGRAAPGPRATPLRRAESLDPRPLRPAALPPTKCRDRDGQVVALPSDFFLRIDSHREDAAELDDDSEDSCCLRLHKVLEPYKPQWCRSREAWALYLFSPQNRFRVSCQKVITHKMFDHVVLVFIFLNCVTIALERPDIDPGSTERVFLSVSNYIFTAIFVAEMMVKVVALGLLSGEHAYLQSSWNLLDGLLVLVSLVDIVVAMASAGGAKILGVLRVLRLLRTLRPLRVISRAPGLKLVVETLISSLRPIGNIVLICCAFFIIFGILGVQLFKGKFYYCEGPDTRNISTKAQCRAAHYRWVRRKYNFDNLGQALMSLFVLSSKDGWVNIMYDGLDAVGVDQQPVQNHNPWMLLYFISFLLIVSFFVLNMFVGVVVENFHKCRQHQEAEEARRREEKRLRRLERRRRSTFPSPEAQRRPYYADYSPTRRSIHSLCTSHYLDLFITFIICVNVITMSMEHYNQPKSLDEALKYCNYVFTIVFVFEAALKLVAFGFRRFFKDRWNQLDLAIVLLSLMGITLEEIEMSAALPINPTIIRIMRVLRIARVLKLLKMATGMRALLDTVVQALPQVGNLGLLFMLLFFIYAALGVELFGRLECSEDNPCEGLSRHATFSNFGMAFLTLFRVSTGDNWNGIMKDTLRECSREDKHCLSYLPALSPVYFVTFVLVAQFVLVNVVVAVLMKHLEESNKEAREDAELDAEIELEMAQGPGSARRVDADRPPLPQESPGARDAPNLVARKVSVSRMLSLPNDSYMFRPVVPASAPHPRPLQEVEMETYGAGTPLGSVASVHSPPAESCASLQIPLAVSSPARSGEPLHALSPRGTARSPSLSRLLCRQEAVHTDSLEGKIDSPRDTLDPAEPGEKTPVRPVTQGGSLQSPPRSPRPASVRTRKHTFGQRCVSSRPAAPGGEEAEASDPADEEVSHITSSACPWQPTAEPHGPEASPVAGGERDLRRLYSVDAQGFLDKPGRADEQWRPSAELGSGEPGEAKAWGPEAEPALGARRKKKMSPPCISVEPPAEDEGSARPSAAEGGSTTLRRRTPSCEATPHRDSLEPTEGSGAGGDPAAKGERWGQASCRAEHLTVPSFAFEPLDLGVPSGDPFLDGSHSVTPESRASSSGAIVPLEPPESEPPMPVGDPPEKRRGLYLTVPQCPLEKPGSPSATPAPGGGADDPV
# Peroxisome proliferator-activated receptor gamma/Nuclear receptor coactivator 3, sequence (P37231 whole entry): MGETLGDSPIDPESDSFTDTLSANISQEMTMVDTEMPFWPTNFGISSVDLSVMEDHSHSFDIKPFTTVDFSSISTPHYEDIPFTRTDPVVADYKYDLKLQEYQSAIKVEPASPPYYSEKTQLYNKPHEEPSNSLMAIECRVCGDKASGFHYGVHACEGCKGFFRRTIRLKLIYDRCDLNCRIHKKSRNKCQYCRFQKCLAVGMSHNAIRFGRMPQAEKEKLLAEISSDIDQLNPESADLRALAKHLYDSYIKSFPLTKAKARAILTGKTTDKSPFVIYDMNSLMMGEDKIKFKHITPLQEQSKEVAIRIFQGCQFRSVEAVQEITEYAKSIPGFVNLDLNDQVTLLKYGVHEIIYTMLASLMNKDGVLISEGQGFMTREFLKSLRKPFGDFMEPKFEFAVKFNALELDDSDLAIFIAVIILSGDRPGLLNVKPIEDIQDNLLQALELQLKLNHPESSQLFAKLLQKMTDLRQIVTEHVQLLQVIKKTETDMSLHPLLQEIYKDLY
# Peroxisome proliferator-activated receptor gamma/Nuclear receptor coactivator 3, sequence (Q9Y6Q9 whole entry, further chain): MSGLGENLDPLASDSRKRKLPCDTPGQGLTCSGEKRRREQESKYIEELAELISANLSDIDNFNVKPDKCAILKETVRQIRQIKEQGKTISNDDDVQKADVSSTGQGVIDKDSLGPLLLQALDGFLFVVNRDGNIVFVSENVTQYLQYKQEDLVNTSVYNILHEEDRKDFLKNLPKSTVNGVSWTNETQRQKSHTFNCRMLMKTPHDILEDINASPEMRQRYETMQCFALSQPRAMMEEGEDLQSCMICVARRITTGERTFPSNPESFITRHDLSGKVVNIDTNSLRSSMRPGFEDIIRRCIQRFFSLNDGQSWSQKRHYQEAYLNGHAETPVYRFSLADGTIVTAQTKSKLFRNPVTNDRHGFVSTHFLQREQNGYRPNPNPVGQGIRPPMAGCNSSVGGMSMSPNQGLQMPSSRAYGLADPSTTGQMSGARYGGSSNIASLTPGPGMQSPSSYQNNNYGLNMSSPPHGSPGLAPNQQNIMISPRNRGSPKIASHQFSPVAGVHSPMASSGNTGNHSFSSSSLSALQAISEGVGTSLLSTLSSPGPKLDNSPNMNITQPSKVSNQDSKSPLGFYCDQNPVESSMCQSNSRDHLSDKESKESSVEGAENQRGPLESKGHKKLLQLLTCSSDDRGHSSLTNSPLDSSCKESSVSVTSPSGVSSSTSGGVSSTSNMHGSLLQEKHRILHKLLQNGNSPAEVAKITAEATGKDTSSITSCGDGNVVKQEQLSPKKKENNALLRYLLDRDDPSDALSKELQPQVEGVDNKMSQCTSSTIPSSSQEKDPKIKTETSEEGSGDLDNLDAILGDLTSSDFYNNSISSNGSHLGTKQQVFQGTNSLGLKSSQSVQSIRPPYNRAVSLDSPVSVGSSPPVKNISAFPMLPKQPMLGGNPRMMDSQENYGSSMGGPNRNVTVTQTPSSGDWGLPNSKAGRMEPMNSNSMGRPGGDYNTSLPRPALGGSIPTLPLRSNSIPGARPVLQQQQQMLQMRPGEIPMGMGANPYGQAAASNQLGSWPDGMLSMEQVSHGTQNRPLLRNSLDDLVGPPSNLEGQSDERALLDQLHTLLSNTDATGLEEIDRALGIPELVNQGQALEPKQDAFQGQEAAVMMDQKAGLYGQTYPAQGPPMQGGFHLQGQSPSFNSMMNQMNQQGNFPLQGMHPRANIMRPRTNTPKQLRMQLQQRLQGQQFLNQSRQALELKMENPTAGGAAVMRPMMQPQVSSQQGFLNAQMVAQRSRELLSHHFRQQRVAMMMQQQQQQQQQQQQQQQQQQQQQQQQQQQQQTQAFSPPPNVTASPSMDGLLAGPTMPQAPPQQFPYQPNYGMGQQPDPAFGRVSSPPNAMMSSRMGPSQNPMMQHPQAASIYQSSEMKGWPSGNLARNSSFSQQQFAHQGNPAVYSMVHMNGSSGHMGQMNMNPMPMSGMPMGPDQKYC
# Eukaryotic translation initiation factor 4E, sequence (P63073 whole entry): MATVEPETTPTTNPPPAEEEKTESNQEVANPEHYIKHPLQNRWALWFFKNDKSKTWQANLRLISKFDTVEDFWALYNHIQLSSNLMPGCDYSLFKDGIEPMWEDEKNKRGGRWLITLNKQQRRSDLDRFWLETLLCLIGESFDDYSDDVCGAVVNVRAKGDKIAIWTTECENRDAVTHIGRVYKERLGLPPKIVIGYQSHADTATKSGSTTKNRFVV
# Mucolipin-3, sequence (Q8TDD5 whole entry, the tested form may be a part): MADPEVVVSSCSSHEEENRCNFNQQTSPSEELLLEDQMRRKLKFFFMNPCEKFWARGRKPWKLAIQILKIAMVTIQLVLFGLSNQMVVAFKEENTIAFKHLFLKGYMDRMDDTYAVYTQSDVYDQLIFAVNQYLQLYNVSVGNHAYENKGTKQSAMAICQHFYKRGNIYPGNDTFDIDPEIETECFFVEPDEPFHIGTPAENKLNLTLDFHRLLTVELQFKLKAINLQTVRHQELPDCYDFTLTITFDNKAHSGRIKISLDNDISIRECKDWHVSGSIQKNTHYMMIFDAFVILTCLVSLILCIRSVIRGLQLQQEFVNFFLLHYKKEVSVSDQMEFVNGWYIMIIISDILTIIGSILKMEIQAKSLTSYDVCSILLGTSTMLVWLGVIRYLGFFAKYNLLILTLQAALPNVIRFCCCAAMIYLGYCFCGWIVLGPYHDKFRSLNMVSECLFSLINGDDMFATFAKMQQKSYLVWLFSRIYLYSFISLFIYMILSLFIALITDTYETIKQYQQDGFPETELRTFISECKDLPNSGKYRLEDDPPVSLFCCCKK
smiles,measurement,setting,value
CCCOc1cc(N(CC)CC)ccc1/C=C(/C#N)c1nc2cc(C)ccc2[nH]1,EC50,[1],> 60 µM (not active)
same,EC50,Streptococcus,> 150 µM (not active)
same,EC50,[2],> 79.4 µM (not active)
same,EC50,[3],> 79.4 µM (not active)
same,EC50,[4],1.19 µM (active)
same,EC50,Streptokinase A,31.9 µM (active)
same,IC50,[5],0.573 µM (active)
same,EC50,[6],> 79.4 µM (not active)
same,EC50,[7],41.5 µM (active)
same,EC50,[8],0.937 µM (active)
Cc1cc(C)c(S(=O)(=O)N2CCCCC2)cc1N(C)S(=O)(=O)c1ccc(Cl)cc1,EC50,Mucolipin-3,1.37 µM (active)
same,AC50,[9],8.27 µM (active)
same,AC50,[10],7.77 µM (active)
same,EC50,Ion channel NompC,> 29.9 µM (not active)
same,AC50,[11],5.6 µM (active)
same,AC50,[12],11.2 µM (active)
COc1ccc(OC)c(Nc2nc(=O)c3cccnc3s2)c1,IC50,[13],> 39.8 µM (not active)
same,IC50,[14],50 µM (inactive)
O=C(NCCC1=CCCCC1)Nc1ccc2nsnc2c1,IC50,[15],23.8 µM (not active)
same,IC50,Insulin-degrading enzyme,> 56 µM (not active)
